# Source: patent publication US20240261258A1, “Presurgical Perineural Administration of Resiniferatoxin For Reduction of Post-Operative Pain” (Sorrento Therapeutics, Inc., priority 2021, published 2024)
# Marks after values point to notes of the source that are not given here.
# Assays:
# [1] = tested on: dog undergoing TPLO, femoral and sciatic nerves; experiment: TPLO in a single dog after perineural RTX (Example A); assay type: in vivo
# Description: A TPLO (Tibial Plateau Osteotomy) was performed on a single dog. Before surgery, 25 μg RTX was administered perineurally to the femoral and sciatic nerves. The procedure included cutting the bone in the leg, changing the angle of the knee articulation, screwing in a plate, and resewing muscle that was cut to access the knee.
# After waking up, all of the dog's motor functions were preserved. […] The dog was able to put the affected leg down from time to time when ambulating but, as would be expected, the leg was not fully weight-bearing.
# [2] = tested on: CGRP immunopositive axons of sciatic and femoral nerves; experiment: Quantification of CGRP immunopositive nerve fibers; assay type: in vivo, dog
# Description: FIGS. 1A-J show density of CGRP immunopositive axons in representative confocal images of ipsilateral (left; A-D) and contralateral (right; E-H) sciatic nerve from dogs post-TPLO and after different treatment and doses of RTX. Each bar represents the mean±SEM. Data were analyzed by one-way ANOVA followed by Tukey post hoc test; *p<0.05. FIGS. 1I-J are bar graphs of the density of CGRP immunopositive axons, (density of nerve fibers in mm/mm3) in ipsilateral (I) and contralateral (J) sciatic nerves as measured in n subjects in each group.
# FIGS. 3A-J show CGRP immunopositive axon density in representative confocal images of ipsilateral (left; A-D) and contralateral (right; E-H) femoral nerve from dogs post-TPLO surgery and after different treatment and doses of RTX. Each bar represents the mean±SEM. Data were analyzed by one-way ANOVA followed by Tukey post hoc test; *p<0.05. FIGS. 3I-J are bar graphs of the density of CGRP immunopositive axons (density of nerve fibers in mm/mm3) in ipsilateral (I), and contralateral (J) femoral nerves as measured in n subjects in each group.
# The effects of different routes of administration and/or different doses of RTX on the density of CGRP immunopositive axons in the ipsilateral (left) and contralateral (right) sciatic nerves are shown in FIG. 1. […] However, statistical significance was observed only with the dose of 12.5 μg (25 μg total; p=0.0184) per nerve of RTX. FIGS. 1E-H show the effect of different treatment and doses of RTX on the density of CGRP nerve axons innervating the contralateral (right) sciatic nerve from animals post-TPLO.
# left stifle joint = experiment: Necropsy and histopathology of stifle joints; assay type: in vivo, dog; settings: for Bone remodeling with increased osteoblasts/osteoclasts: Mild, number of dogs / Bone remodeling with increased osteoblasts/osteoclasts: Minimal, number of dogs / Bone remodeling with increased osteoblasts/osteoclasts: Moderate, number of dogs / Bone remodeling with increased osteoblasts/osteoclasts: number of dogs with the finding / Collagen (picosirius red stain): number of dogs with the finding / Non-epiphyseal cartilage: Mild, number of dogs / Non-epiphyseal cartilage: Minimal, number of dogs / Non-epiphyseal cartilage: Moderate, number of dogs / Non-epiphyseal cartilage: number of dogs with the finding / Screw holes with intraluminal hemorrhage: Mild, number of dogs / Screw holes with intraluminal hemorrhage: number of dogs with the finding / Soft tissue mononuclear inflammation: Mild, number of dogs / Soft tissue mononuclear inflammation: Minimal, number of dogs / Soft tissue mononuclear inflammation: number of dogs with the finding / Synovial hypertrophy/hyperplasia: Mild, number of dogs / Synovial hypertrophy/hyperplasia: Minimal, number of dogs / Synovial hypertrophy/hyperplasia: Moderate, number of dogs / Synovial hypertrophy/hyperplasia: number of dogs with the finding: left stifle joint, 4 examined; for Average collagen score left leg (picosirius red): operated left stifle; for Average collagen score right leg (picosirius red): un-operated right stifle
# Source text: These findings were confirmed during necropsy.
# It was characterized by plump, variably piled synoviocytes with slightly more prominent fibrillary projections into the synovial spaces as compared to the control right stifle joints. Some control un-operated right stifle joints also occasionally had minimal synovial hypertrophy/hyperplasia typified by slightly plump, variably piled synoviocytes, but lacked increased fibrillary projections.
# Soft tissue mononuclear inflammation was seen as small collections of lymphocytes, macrophages, and/or plasma cells or increased numbers of diffusely scattered mononuclear cells. The inflammation was commonly seen in the synovial lining subjacent to the synoviocytes, or in soft tissues that remained attached to the bone/joint. The incidences and average severity grades were not remarkably different between left joint groups.
# Bone remodeling with increased osteoblasts/osteoclasts was characterized by irregular areas of bone/callous formation. Some areas of bone remodeling had increased cellularity due to increased numbers of osteoblasts and osteoclasts that outlined bone.
# Presence of cartilage on the operated sides was presumptively interpreted to represent areas of residual cartilage in the physis which had been shifted/transposed by the TPLO surgery, and/or new cartilage formation. The amount of cartilage in each section was subjectively graded using the H&E and toluidine blue stains. […] Any differences could also be influenced by differences in physeal cartilage amounts/extent of physeal closure between dogs, and by plane-of-section variabilities.
# A collagen score for each of the stifle joint slides stained with picosirius red was assigned based on the qualitative estimate of collagen present on the slide. The average of the three slides per joint was recorded. An overall collagen score for the left and right stifle joints for each group was calculated by averaging the individual collagen scores. […] The average collagen scores of groups 1-4 for the operated left legs were slightly higher than the corresponding un-operated right leg group average collagen scores. Higher collagen in the operated legs seemed consistent with post-surgical healing processes.
# [3] = 25 μg RTX perineurally before surgery
compound,measurement,setting,value
"C=C(C)[C@]12C[C@@H](C)[C@@]34O[C@](Cc5ccccc5)(O[C@@H]1[C@@H]3C=C(COC(=O)Cc1ccc(O)c(OC)c1)C[C@]1(O)C(=O)C(C)=C[C@@H]41)O2 [RTX, resiniferatoxin]",Additional pain medications when the dog woke up,[1]; [3],No additional pain medications
same,Motor functions after waking up,[1]; [3],preserved
same,Need to deepen the general anesthesia during cutting of the bone,[1]; [3],no need to deepen the general anesthesia
same,Need to increase the opioid dose for the last part of the surgery,[1]; [3],no need to increase the opioid dose
same,"Pain at manipulation, inflammation, and swelling (standardized veterinary post-surgical pain scale)",[1]; [3],lower than expected
same,Time until the dog was up and walking,[1]; [3],Within a couple of hours
same,Reaction of the dog during cutting of the bone,[1]; 25 μg RTX perineurally to femoral and sciatic nerves before surgery,no reaction
same,Density of CGRP nerve axons in the contralateral sciatic nerve vs control treatment,"[2]; RTX treated groups, p=0.9565, p=0.7911, p=0.7229",no differences
same,Density of CGRP nerve axons in the contralateral femoral nerve vs control treatment,"[2]; any RTX treatment, p=0.9914, p>0.9999, p=0.1760",did not statistically reduce
same,Density of CGRP nerve axons in the ipsilateral sciatic nerve vs control treatment,"[2]; local administration (50 μg), not statistically significant",reduced the density of CGRP nerve axons
same,Density of CGRP nerve axons in the ipsilateral sciatic nerve vs control treatment,"[2]; peri-neural 3.12 μg per nerve (6.25 μg total), not statistically significant",reduced the density of CGRP nerve axons
same,Density of CGRP nerve axons in the ipsilateral femoral nerve,"[2]; peri-neural 12.5 μg per nerve (25 μg total), p=0.0125",statistically reduced
same,Density of CGRP nerve axons in the ipsilateral sciatic nerve vs control treatment,"[2]; peri-neural 12.5 μg per nerve (25 μg total), statistically significant, p=0.0184",reduced the density of CGRP nerve axons
same,Microscopic changes in the left stifle joints,"left stifle joint; all RTX groups, day 56",No microscopic changes in the left stifle joints suggestive of RTX-related toxicity
same,Callus at removal of the TPLO plate,"left stifle joint; all stifles, confirmed during necropsy",normal callus
same,"Bone remodeling with increased osteoblasts/osteoclasts: Mild, number of dogs",left stifle joint; Group 1 High (25 μg),2
same,"Bone remodeling with increased osteoblasts/osteoclasts: Minimal, number of dogs",left stifle joint; Group 1 High (25 μg),2
same,"Bone remodeling with increased osteoblasts/osteoclasts: Moderate, number of dogs",left stifle joint; Group 1 High (25 μg),0
same,Bone remodeling with increased osteoblasts/osteoclasts: number of dogs with the finding,left stifle joint; Group 1 High (25 μg),(4)
same,Collagen (picosirius red stain): number of dogs with the finding,left stifle joint; Group 1 High (25 μg),(4)
same,"Non-epiphyseal cartilage: Mild, number of dogs",left stifle joint; Group 1 High (25 μg),1
same,"Non-epiphyseal cartilage: Minimal, number of dogs",left stifle joint; Group 1 High (25 μg),1
same,"Non-epiphyseal cartilage: Moderate, number of dogs",left stifle joint; Group 1 High (25 μg),2
same,Non-epiphyseal cartilage: number of dogs with the finding,left stifle joint; Group 1 High (25 μg),(4)
same,"Screw holes with intraluminal hemorrhage: Mild, number of dogs",left stifle joint; Group 1 High (25 μg),4
same,Screw holes with intraluminal hemorrhage: number of dogs with the finding,left stifle joint; Group 1 High (25 μg),(4)
same,"Soft tissue mononuclear inflammation: Mild, number of dogs",left stifle joint; Group 1 High (25 μg),1
same,"Soft tissue mononuclear inflammation: Minimal, number of dogs",left stifle joint; Group 1 High (25 μg),3
same,Soft tissue mononuclear inflammation: number of dogs with the finding,left stifle joint; Group 1 High (25 μg),(4)
same,"Synovial hypertrophy/hyperplasia: Mild, number of dogs",left stifle joint; Group 1 High (25 μg),4
same,"Synovial hypertrophy/hyperplasia: Minimal, number of dogs",left stifle joint; Group 1 High (25 μg),0
same,"Synovial hypertrophy/hyperplasia: Moderate, number of dogs",left stifle joint; Group 1 High (25 μg),0
same,Synovial hypertrophy/hyperplasia: number of dogs with the finding,left stifle joint; Group 1 High (25 μg),(4)
same,"Bone remodeling with increased osteoblasts/osteoclasts: Mild, number of dogs",left stifle joint; Group 2 Low (6.25 μg),2
same,"Bone remodeling with increased osteoblasts/osteoclasts: Minimal, number of dogs",left stifle joint; Group 2 Low (6.25 μg),1
same,"Bone remodeling with increased osteoblasts/osteoclasts: Moderate, number of dogs",left stifle joint; Group 2 Low (6.25 μg),1
same,Bone remodeling with increased osteoblasts/osteoclasts: number of dogs with the finding,left stifle joint; Group 2 Low (6.25 μg),(4)^a
same,Collagen (picosirius red stain): number of dogs with the finding,left stifle joint; Group 2 Low (6.25 μg),(4)^a
same,"Non-epiphyseal cartilage: Mild, number of dogs",left stifle joint; Group 2 Low (6.25 μg),1
same,"Non-epiphyseal cartilage: Minimal, number of dogs",left stifle joint; Group 2 Low (6.25 μg),1
same,"Non-epiphyseal cartilage: Moderate, number of dogs",left stifle joint; Group 2 Low (6.25 μg),2
same,Non-epiphyseal cartilage: number of dogs with the finding,left stifle joint; Group 2 Low (6.25 μg),(4)^a
same,"Screw holes with intraluminal hemorrhage: Mild, number of dogs",left stifle joint; Group 2 Low (6.25 μg),4
same,Screw holes with intraluminal hemorrhage: number of dogs with the finding,left stifle joint; Group 2 Low (6.25 μg),(4)^a
same,"Soft tissue mononuclear inflammation: Mild, number of dogs",left stifle joint; Group 2 Low (6.25 μg),4
same,"Soft tissue mononuclear inflammation: Minimal, number of dogs",left stifle joint; Group 2 Low (6.25 μg),0
same,Soft tissue mononuclear inflammation: number of dogs with the finding,left stifle joint; Group 2 Low (6.25 μg),(4)^a
same,"Synovial hypertrophy/hyperplasia: Mild, number of dogs",left stifle joint; Group 2 Low (6.25 μg),3
same,"Synovial hypertrophy/hyperplasia: Minimal, number of dogs",left stifle joint; Group 2 Low (6.25 μg),0
same,"Synovial hypertrophy/hyperplasia: Moderate, number of dogs",left stifle joint; Group 2 Low (6.25 μg),1
same,Synovial hypertrophy/hyperplasia: number of dogs with the finding,left stifle joint; Group 2 Low (6.25 μg),(4)^a
same,"Bone remodeling with increased osteoblasts/osteoclasts: Mild, number of dogs",left stifle joint; Group 3 Local (50 μg),2
same,"Bone remodeling with increased osteoblasts/osteoclasts: Minimal, number of dogs",left stifle joint; Group 3 Local (50 μg),0
same,"Bone remodeling with increased osteoblasts/osteoclasts: Moderate, number of dogs",left stifle joint; Group 3 Local (50 μg),2
same,Bone remodeling with increased osteoblasts/osteoclasts: number of dogs with the finding,left stifle joint; Group 3 Local (50 μg),(4)
same,Collagen (picosirius red stain): number of dogs with the finding,left stifle joint; Group 3 Local (50 μg),(4)
same,"Non-epiphyseal cartilage: Mild, number of dogs",left stifle joint; Group 3 Local (50 μg),2
same,"Non-epiphyseal cartilage: Minimal, number of dogs",left stifle joint; Group 3 Local (50 μg),0
same,"Non-epiphyseal cartilage: Moderate, number of dogs",left stifle joint; Group 3 Local (50 μg),2
same,Non-epiphyseal cartilage: number of dogs with the finding,left stifle joint; Group 3 Local (50 μg),(4)
same,"Screw holes with intraluminal hemorrhage: Mild, number of dogs",left stifle joint; Group 3 Local (50 μg),4
same,Screw holes with intraluminal hemorrhage: number of dogs with the finding,left stifle joint; Group 3 Local (50 μg),(4)
same,"Soft tissue mononuclear inflammation: Mild, number of dogs",left stifle joint; Group 3 Local (50 μg),2
same,"Soft tissue mononuclear inflammation: Minimal, number of dogs",left stifle joint; Group 3 Local (50 μg),2
same,Soft tissue mononuclear inflammation: number of dogs with the finding,left stifle joint; Group 3 Local (50 μg),(4)
same,"Synovial hypertrophy/hyperplasia: Mild, number of dogs",left stifle joint; Group 3 Local (50 μg),3
same,"Synovial hypertrophy/hyperplasia: Minimal, number of dogs",left stifle joint; Group 3 Local (50 μg),0
same,"Synovial hypertrophy/hyperplasia: Moderate, number of dogs",left stifle joint; Group 3 Local (50 μg),1
same,Synovial hypertrophy/hyperplasia: number of dogs with the finding,left stifle joint; Group 3 Local (50 μg),(4)
same,Average collagen score left leg (picosirius red),left stifle joint; Group 1 High (25 μg),2.9
same,Average collagen score left leg (picosirius red),left stifle joint; Group 2 Low (6.25 μg),2.6
same,Average collagen score left leg (picosirius red),left stifle joint; Group 3 Local (50 μg),3.0
same,Average collagen score right leg (picosirius red),left stifle joint; Group 1 High (25 μg),2.3
same,Average collagen score right leg (picosirius red),left stifle joint; Group 2 Low (6.25 μg),2.3
same,Average collagen score right leg (picosirius red),left stifle joint; Group 3 Local (50 μg),2.4
